# Key:
# [1] = system: microtubule acetylation in keratinocytes; assay: Keratinocyte microtubule acetylation (K40); assay type: in vivo, zebrafish; conditions: 22 μM paclitaxel, 96 hr, with and without EMD534085
# Experimental: Larval fish were transferred into […] glass vials and fixed in 4% paraformaldehyde (PFA)/1× Phosphate-buffered saline (PBS) for 1.5 hr at room temperature, with gentle rocking. Following a 5-minute incubation in 1×PBS+0.1% Tween-20 (PBST), zebrafish were permeabilized in 1×PBS+0.1% Triton X-100 for 10-30 min. Larval fish were transferred into 2 ml reaction tubes and incubated in blocking buffer (1×PBST+5% BSA) for 30 min at room temperature, with rocking. Larval fish were further incubated overnight in antibody solution (Millipore Sigma, Cat. No. AB3201, 1:300 rabbit anti-GluTub; Sigma, Cat No. T6793, 1:500 mouse anti-acetylated tubulin) in blocking buffer at 4 °C, on a rotator. The next morning, larval fish were transferred into 6-well plates and washed 4×15 min in 1×PBST at room temperature, with rocking. This was followed by incubation in secondary antibody (goat anti-rabbit Cy5, Abcam, Cat. No. ab97077; goat anti-mouse Cy3, Abcam, Cat. No. ab97035) and 1:10,000 Hoechst 33342 (ThermoFisher Scientific, Cat. No. 62249, 20 mM solution) in blocking buffer for 1 hr at room temperature, with rocking. Fish were covered to avoid bleaching. […]
# dfMTs in keratinocytes = assay: dfMT fascicle width; assay type: in vivo, zebrafish; conditions: 96 hr
# Experimental: The stock solution was divided into 20-30 μl aliquots and stored at −20 °C until use (maximal 6 months). Immediately prior to use, paclitaxel was diluted in Ringer's solution and added to dechorionated larval zebrafish. The larval fish were placed individually or in small groups into wells of a 12-well plate containing the treatment solutions. The control group was 0.05% DMSO. Plates were incubated at 28.5 °C and protected from light. Treatment lengths are indicated in the Drawings, Description of the Drawings, and Examples where appropriate. […] EMD534085, Eg5 inhibitor (MedChemExpress, Cat. No. HY-15000) was diluted in 100% DMSO to make a 10 mM stock solution and stored at −20 °C. […] The solutions were exchanged every 48 hr.
# Larval fish were transferred into […] glass vials and fixed in 4% paraformaldehyde (PFA)/1× Phosphate-buffered saline (PBS) for 1.5 hr at room temperature, with gentle rocking. Following a 5-minute incubation in 1×PBS+0.1% Tween-20 (PBST), zebrafish were permeabilized in 1×PBS+0.1% Triton X-100 for 10-30 min. Larval fish were transferred into 2 ml reaction tubes and incubated in blocking buffer (1×PBST+5% BSA) for 30 min at room temperature, with rocking. […]
# dfMT thicknesses (defined as the mean width of a given dfMT) was manually measured at high magnification using the Slice mode in Imaris and the Line tool for measuring the distance between two points. […]
# skin gene expression = assay: Mouse skin RNAseq; assay type: in vivo; conditions: mice, 2 mg/kg paclitaxel i.p. x4
# Experimental: The RNAseq data set was published in Cirrincione et al. (2022, Data 7: 72). Following differential gene expression analysis (FDR<0.01) comparing paclitaxel-treated to vehicle control animals (n=4), identified genes were queried in gProfiler and grouped by their molecular function. Using normalized gene counts, Kif genes were analyzed for their expression and plotted over time. […] Kif11 was queried in STRING to identify associated networks and interacting proteins compared to the RNAseq data set and differentially expressed genes were graphed in Prism 9.
# Molecular mechanisms underlying paclitaxel-induced microtubule fasciculation were then investigated. […] Peripheral neuropathy was correlated with these times points using von Frey behavioral testing, which determined that peak neuropathy was present at day 7 (D7). This identified several biological categories during peak neuropathy with the largest clusters being implicated in extracellular matrix organization (e.g. “ECM”, “collagen-containing ECM”, “collagen trimer”) and cell cycle regulation (e.g. “outer kinetochore”, “kinesin complex”, condensed chromosome, centromeric region”, “mitotic spindle”, “microtubules”), consistent with our findings in zebrafish. Interactome analysis using STRING (Szklarczyk et al., 2021, Nucl. Acids Res 49: D605-D612) to predict protein association networks further identified major clusters involved in cell cycle regulation, which contained various kinesins, microtubule and nucleus regulators, as well as one cluster annotated as “disulfide bond”, consistent with a role for oxidative signal activation (Leonard et al., 2011, Current opinion in chemical biology 15: 88-102) (shown in FIG. 3D).
# [2] = system: HyPer oxidation in keratinocytes; assay: HyPer imaging of H2O2 production upon caudal fin stretch; assay type: in vivo, zebrafish; conditions: wildtype, 3 hr paclitaxel
# Experimental: HyPer fluorescence was measured in the oxidized (505 nm) and unoxidized (420 nm) channels by using the region of interest (ROI) function in ZEN Black (Zeiss) whereby ROIs were selected inside highly magnified mitochondria (HyPer-mito), cytoplasm (HyPer-cyto) or the plasma membrane (HyPer-CAAX). The data was exported, and ratios determined in Excel. H2O2 measurements in zebrafish transiently injected with tp63:Hyper were manually performed by placing spot objects in Imaris 9.5.1 onto individual cells such that the spots extended to the lateral edges. Fluorescence intensities were measured inside the spots and 505 nm/420 nm ratios were subsequently calculated.
# The extent of stretch that was induced in wildtype transgenic Tg(tp63:GFP-CAAX) (Lisse et al., 2016, Proceedings of the National Academy of Sciences of the United States of America 113: E2189-2198) fish in which keratinocyte plasma membranes are fluorescently labelled was characterized.
# To further investigate whether paclitaxel in combination with stretch alters ROS formation, HyPer imaging was performed.
smiles,measurement,setting,value
CC(=O)O[C@H]1C(=O)[C@@]2(C)[C@H]([C@H](OC(=O)c3ccccc3)[C@]3(O)C[C@H](OC(=O)[C@H](O)[C@@H](NC(=O)c4ccccc4)c4ccccc4)C(C)=C1C3(C)C)[C@]1(OC(C)=O)CO[C@@H]1C[C@@H]2O [paclitaxel],keratinocyte microtubule acetylation,[1],an increase in keratinocyte microtubule acetylation after 96 hr paclitaxel treatment with and without EMD534085
same,fascicle width of dMTs,dfMTs in keratinocytes; 100 nM paclitaxel,6.0±0.49 μm
same,fascicle width of dMTs,dfMTs in keratinocytes; 22 μM paclitaxel,3.4±0.17 μm
same,"expression of Cdk1, Aurka, Aurkb and Kif11",skin gene expression,upregulated during peak neuropathy
same,expression of Cyba and Cybb,skin gene expression,upregulated at D23
same,"expression of checkpoint regulators Plk1, Cdc20, Ndc80, Bub1c, Dlgap5",skin gene expression,co-upregulation from D7 onward
same,time of peak HyPer oxidation post-stretch,[2],10 to 20 min

# Source: patent US20260345584A1, “METHODS AND PHARMACEUTICAL COMPOSITIONS FOR TREATING CHEMOTHERAPY-INDUCED PERIPHERAL NEUROPATHY WITH EG5 INHIBITORS” (UNIVERSITY OF MIAMI, priority 2023, published 2026)
